One block for each compound: values may come before it. The source made the active and inactive calls.
Legend:
[1] = biological target: Kappa-type opioid receptor (Homo sapiens, UniProt P41145); experiment: SAR analysis of small molecule agonists of the kappa opioid receptor via a luminescent beta-arrestin assay - Set 3. [Related pubchem assays (depositor defined):AID1777, AID1785, AID1786, AID1966, AID2133, AID2136, AID2284, AID2500]; assay type: functional
[2] = biological target: Tyrosine-protein phosphatase non-receptor type 7 (Homo sapiens, UniProt P35236); experiment: inhibition of hematopoietic tyrosine phosphatase HePTP – biochemical, set 2, SAR follow-up (AID 449736); assay type: functional
Sequence of Tyrosine-protein phosphatase non-receptor type 7 (P35236 whole entry): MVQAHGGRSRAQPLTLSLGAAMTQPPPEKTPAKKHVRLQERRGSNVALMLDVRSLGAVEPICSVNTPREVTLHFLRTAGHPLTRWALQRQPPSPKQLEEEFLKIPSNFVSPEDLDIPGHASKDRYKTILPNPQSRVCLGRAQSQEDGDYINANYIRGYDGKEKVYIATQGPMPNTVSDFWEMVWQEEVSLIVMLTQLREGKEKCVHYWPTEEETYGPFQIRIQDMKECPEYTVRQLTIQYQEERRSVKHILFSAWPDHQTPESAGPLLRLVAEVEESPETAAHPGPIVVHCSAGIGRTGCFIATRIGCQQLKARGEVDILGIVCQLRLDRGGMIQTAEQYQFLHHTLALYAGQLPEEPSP

[3] = biological target: T1, Mannose-6-phosphate isomerase (Homo sapiens, UniProt P34949); experiment: phosphomannose isomerase inhibition – biochemical, fluorescence intensity, confirmation (AID 1535)
T1 sequence (P34949 whole entry): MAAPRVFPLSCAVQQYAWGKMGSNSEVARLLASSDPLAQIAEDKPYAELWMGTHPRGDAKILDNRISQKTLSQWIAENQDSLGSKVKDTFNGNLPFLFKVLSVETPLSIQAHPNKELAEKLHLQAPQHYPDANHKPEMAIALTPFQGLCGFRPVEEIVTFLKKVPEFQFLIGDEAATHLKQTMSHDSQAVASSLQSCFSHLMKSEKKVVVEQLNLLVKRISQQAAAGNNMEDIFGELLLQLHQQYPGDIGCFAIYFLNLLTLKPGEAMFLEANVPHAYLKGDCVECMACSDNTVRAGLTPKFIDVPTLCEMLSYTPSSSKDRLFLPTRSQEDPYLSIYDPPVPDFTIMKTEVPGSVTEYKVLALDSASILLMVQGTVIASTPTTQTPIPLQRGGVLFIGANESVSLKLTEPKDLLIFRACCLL

Phosphomannomutase 2 = Phosphomannomutase 2 (Homo sapiens, UniProt O15305); experiment: Counter screen SAR assay for PMM2 inhibitors via a fluorescence intensity assay. [Related pubchem assays (depositor defined):AID1545, AID1574]
Sequence of Phosphomannomutase 2 (O15305 whole entry): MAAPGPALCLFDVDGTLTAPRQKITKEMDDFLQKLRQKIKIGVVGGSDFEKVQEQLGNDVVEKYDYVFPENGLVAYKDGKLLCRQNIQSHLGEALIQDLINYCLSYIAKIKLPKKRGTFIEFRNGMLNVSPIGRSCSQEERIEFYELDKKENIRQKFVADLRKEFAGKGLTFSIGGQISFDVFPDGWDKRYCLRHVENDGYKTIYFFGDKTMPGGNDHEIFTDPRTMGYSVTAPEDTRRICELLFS

[4] = biological target: Nuclear receptor ROR-alpha (Homo sapiens, UniProt P35398); experiment: LXR, FXR and VP16 reporter activity, cell-based, luciferase reporter, ROR modulator project, late-stage follow-up, panel member RORA (AID 2117)
Sequence of Nuclear receptor ROR-alpha (P35398 whole entry): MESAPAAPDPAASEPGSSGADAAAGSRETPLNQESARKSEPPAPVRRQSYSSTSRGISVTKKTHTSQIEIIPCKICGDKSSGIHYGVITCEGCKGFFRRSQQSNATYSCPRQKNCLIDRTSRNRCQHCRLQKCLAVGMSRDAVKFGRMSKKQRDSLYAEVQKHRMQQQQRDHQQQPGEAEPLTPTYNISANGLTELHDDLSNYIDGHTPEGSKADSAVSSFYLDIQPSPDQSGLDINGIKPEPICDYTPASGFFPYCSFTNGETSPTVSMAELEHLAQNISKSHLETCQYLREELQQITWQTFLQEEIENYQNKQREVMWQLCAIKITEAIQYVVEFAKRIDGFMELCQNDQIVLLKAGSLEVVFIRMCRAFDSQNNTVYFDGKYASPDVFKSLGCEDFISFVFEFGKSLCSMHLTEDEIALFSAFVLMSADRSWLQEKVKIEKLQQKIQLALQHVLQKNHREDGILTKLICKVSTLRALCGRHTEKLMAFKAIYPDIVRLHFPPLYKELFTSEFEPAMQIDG

[5] = biological target: Nuclear receptor ROR-gamma (Homo sapiens, UniProt P51449); experiment: LXR, FXR and VP16 reporter activity, cell-based, luciferase reporter, ROR modulator project, late-stage follow-up, panel member RORG (AID 2117)
Sequence of Nuclear receptor ROR-gamma (P51449 whole entry): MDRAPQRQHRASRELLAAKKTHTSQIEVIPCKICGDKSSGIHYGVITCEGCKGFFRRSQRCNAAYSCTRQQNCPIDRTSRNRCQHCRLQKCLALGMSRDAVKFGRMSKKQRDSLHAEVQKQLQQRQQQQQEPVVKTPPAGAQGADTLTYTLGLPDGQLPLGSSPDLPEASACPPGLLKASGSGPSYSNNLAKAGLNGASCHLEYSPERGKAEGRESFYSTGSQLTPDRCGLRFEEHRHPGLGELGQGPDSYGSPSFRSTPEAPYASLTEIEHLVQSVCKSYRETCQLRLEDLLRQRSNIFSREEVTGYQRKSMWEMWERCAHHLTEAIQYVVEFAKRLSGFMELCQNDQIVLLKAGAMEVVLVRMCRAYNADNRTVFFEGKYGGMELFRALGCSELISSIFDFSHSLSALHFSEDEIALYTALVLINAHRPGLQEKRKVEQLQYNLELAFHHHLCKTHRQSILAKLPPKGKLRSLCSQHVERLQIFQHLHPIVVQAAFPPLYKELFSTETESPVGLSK

[6] = biological target: Intestinal-type alkaline phosphatase (Mus musculus, UniProt P24822); experiment: PubChem AID 488785; assay type: functional
Sequence of Intestinal-type alkaline phosphatase (Mus musculus, UniProt P24822) (P24822 whole entry): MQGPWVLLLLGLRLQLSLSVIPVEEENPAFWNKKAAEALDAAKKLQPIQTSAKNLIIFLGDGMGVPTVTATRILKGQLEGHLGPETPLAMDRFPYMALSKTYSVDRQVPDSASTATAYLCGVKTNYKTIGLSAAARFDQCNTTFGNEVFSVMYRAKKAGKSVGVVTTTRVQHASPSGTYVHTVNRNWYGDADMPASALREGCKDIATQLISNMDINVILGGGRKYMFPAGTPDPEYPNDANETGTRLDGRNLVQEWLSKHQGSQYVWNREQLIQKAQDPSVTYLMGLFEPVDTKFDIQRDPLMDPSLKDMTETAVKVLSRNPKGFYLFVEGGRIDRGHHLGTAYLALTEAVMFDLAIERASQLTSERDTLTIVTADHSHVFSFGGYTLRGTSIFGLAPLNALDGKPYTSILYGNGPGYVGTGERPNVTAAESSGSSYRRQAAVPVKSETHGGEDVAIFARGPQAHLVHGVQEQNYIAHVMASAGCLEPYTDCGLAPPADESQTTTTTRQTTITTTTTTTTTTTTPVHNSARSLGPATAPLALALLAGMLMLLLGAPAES

[7] = biological target: T2, Alkaline phosphatase, tissue-nonspecific isozyme (Homo sapiens, UniProt P05186); experiment: TNAP enzyme inhibition by screening hits, dose response, selectivity assay for mouse IAP inhibitor project, biochemical, human TNAP, uHTS hits (AID 488906); assay type: functional
T2 sequence (P05186 whole entry): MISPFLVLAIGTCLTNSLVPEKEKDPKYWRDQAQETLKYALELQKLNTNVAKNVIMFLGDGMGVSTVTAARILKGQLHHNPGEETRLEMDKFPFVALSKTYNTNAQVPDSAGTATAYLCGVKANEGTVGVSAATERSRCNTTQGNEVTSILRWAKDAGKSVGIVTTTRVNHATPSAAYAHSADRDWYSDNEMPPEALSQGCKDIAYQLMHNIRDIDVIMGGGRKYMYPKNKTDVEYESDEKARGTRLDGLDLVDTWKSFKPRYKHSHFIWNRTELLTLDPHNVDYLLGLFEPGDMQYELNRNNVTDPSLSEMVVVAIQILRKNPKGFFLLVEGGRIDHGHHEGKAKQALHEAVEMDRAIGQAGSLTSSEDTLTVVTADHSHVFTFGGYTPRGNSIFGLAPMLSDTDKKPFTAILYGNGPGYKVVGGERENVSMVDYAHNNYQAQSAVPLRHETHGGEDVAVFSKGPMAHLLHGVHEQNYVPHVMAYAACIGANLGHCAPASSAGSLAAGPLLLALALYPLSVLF

[8] = biological target: Intestinal-type alkaline phosphatase (Homo sapiens, UniProt P09923); experiment: inhibition of human intestinal alkaline phosphatase – biochemical, dose response (AID 488876); assay type: functional
cells [9] = assay type: functional, cell-based; details: HEK-CNG
cells [10] = assay type: functional, cell-based
Galanin receptor type 3 = Galanin receptor type 3 (Homo sapiens, UniProt O60755); experiment: Fluorescence-based cell-based primary high throughput dose response assay to identify antagonists of the Galanin Receptor 3 (GalR3).; assay type: functional
Sequence of Galanin receptor type 3 (O60755 whole entry): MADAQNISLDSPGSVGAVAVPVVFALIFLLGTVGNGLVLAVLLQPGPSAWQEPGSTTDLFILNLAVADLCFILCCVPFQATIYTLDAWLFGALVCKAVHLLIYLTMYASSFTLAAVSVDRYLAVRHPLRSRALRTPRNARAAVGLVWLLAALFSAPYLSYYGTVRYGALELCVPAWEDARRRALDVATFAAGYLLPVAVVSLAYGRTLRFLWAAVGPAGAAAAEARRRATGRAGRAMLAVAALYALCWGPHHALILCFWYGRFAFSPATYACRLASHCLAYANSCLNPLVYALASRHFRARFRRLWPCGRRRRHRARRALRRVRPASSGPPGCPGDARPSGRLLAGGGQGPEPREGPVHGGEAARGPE

SUMO-activating enzyme [11] = biological target: T3, SUMO-activating enzyme (Homo sapiens, UniProt Q9UBT2); experiment: blockers of UBC9-mediated SUMO conjugation – biochemical, AlphaScreen, SUMOylation inhibitor project, confirmation (AID 2018); assay type: functional
T3 sequence (Q9UBE0 whole entry): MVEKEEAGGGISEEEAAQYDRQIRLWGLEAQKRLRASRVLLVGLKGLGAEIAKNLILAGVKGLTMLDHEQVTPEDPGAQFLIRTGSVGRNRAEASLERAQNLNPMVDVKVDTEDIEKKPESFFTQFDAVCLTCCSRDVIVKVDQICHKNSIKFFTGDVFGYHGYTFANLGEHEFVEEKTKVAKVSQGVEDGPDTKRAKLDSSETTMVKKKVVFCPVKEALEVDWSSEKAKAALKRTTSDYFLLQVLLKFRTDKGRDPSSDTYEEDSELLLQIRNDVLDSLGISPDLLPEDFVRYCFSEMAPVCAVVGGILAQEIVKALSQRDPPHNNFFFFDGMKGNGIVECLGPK
T3 sequence (Q9UBT2 whole entry): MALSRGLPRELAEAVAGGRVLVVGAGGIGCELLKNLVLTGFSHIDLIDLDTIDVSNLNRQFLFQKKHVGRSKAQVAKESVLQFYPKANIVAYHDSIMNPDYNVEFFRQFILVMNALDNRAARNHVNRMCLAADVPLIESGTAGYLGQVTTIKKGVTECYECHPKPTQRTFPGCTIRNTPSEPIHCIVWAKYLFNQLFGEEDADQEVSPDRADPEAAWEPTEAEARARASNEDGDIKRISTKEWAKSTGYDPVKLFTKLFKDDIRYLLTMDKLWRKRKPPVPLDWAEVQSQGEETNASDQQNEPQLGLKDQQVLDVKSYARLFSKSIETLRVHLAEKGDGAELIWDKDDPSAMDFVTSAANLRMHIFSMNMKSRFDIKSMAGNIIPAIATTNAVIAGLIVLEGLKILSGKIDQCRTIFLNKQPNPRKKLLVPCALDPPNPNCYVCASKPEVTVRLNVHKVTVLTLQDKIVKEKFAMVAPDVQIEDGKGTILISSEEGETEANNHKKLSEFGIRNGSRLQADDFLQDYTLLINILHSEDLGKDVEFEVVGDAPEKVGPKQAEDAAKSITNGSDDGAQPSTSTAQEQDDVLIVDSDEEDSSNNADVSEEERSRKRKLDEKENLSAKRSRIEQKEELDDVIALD

Albumin = Albumin (Bos taurus, UniProt P02769); experiment: Counterscreen for inhibitors of T-cell receptor (TCR)-CD3 interaction: Fluorescence-based biochemical high throughput dose response assay to identify inhibitors of T-cell receptor (TCR)-CD3 interaction using a TAMRA-labeled BSA probe.; assay type: functional
Sequence of Albumin (P02769 whole entry): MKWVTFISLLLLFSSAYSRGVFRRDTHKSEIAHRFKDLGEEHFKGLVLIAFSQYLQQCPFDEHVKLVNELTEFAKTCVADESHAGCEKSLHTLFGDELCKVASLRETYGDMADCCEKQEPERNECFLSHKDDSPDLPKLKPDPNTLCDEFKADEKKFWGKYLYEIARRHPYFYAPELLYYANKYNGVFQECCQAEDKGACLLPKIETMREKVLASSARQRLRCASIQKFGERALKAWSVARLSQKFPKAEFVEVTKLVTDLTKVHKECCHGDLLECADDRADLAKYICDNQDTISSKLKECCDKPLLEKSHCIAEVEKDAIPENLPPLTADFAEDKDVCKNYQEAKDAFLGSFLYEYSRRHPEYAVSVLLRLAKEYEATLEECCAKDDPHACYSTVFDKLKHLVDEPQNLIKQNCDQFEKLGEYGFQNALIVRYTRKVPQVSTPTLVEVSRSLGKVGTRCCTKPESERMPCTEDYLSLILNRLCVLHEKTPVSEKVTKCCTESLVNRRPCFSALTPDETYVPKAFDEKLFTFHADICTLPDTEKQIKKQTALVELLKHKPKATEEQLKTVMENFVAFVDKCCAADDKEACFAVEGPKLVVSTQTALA

cells [12] = assay type: functional, cell-based; remark: listed apart in the source
SUMO-activating enzyme [13] = biological target: T3, SUMO-activating enzyme; experiment: blockers of SAE1/SAE2–UBC9 SUMO transfer – biochemical, HTRF, uHTS, primary screen (AID 2006); assay type: protein-complex assay

Sequence of Kappa-type opioid receptor (P41145 whole entry): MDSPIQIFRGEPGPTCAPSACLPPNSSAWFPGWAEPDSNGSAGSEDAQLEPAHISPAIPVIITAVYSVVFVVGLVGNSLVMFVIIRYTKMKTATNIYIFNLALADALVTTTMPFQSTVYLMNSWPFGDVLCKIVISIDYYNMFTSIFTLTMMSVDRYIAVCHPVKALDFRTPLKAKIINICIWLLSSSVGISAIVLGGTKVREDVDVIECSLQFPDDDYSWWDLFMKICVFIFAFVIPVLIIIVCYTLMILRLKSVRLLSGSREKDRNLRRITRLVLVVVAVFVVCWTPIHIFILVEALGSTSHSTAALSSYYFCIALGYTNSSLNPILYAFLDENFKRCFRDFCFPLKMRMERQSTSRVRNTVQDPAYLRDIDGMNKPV

- EC50 [1]: > 20 µM (inactive)
SMILES: COc1ccc(Cn2c(SCc3ccccc3)nnc2-c2ccccn2)cc1

SMILES: NS(=O)(=O)c1ccc(NC(=S)Nc2ccc3c(c2)CCC3)cc1
- IC50 [2]: 7.93 µM (active)

- IC50 [3]: 9.43 µM (active)
- IC50 (Phosphomannomutase 2): > 100 µM (inactive)
SMILES: Nc1ccccc1/N=c1\ssnc1Cl

- IC50 [4]: 2.31 µM (active)
- IC50 [5]: 7.23 µM (active)
SMILES: COc1cccc(S(=O)(=O)Nc2ccc(C(O)(C(F)(F)F)C(F)(F)F)cc2)c1

- IC50 [6]: 3.68 µM (active)
- IC50 [7]: > 100 µM (inactive)
- IC50 [8]: 1.74 µM (active)
SMILES: COC(=O)C/C=N/NC1=NC(=O)/C(=C/C(=O)O)S1

SMILES: C/C(=N\OCc1nc2ccccc2c(=O)n1/N=C/c1cc(C)cc([N+](=O)[O-])c1O)c1ccccc1
- EC50 (cells [9]): > 29.9 µM (inactive)
- EC50 (cells [10]): 78 µM (active)
- IC50 (Galanin receptor type 3): 3.39 µM (active)
- IC50 (SUMO-activating enzyme [11]): 1.2 µM (active)
- IC50 (Albumin): > 94.1 µM (inactive)
- EC50 (cells [12]): > 350 µM (not active)
- IC50 (SUMO-activating enzyme [13]): 8.77 µM (active)
